Data on 2 molecules can be found in ChEMBL document CHEMBL1126784, “A selective delta 1 opioid receptor agonist derived from oxymorphone. Evidence for separate recognition sites for delta 1 opioid receptor agonists and antagonists” (J Med Chem, 1993).

Broadly, the Ki is the dissociation constant of the complex between target and ligand, obtained from inhibition or displacement. Lower therefore signals tighter binding.

In experiment [1] the test system is Mus musculus. The experiment in a line: Antinociceptive potency in mice using the tail-flick test on icv administration. It is filed as functional. A general note: Thermal pain tests record how soon the animal reacts.
The target of experiment [2] is Kappa-type opioid receptor (Cavia porcellus, UniProt P41144). The experiment in a line: selective binding affinity against kappa opioid receptor, using [3H]U-69593 as radioligand.
The target in experiment [3] is Mu-type opioid receptor (Cavia porcellus, UniProt P97266). The experiment in a line: selective binding affinity against mu opioid receptor, using [3H]DAMGO as radioligand.
Mu-type opioid receptor, sequence (P97266 whole entry): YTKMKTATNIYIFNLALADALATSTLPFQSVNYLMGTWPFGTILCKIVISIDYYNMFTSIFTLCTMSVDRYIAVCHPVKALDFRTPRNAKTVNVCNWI

Kappa-type opioid receptor, sequence (P41144 whole entry): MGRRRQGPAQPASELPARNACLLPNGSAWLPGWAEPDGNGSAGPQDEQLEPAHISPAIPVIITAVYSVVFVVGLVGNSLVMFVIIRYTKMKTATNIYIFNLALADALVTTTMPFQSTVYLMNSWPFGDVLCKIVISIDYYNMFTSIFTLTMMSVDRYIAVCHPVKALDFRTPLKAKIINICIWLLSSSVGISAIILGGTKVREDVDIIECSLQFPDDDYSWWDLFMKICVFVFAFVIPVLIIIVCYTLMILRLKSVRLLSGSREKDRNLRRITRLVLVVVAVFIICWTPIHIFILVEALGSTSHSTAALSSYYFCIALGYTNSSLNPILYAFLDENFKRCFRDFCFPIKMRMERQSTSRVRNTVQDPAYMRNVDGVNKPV

In experiment [1], `CC1(C)SSC(C)(C)[C@@H](NC(=O)[C@@H](N)Cc2ccc(O)cc2)C(=O)NCC(=O)N[C@@H](Cc2ccccc2)C(=O)N[C@H]1C(=O)O` yielded an ED50 of 11.5 nM mouse-1.

With `CN1CC[C@]23c4c5ccc(O)c4O[C@H]2C(=O)C2(Cc4ccccc4C2)C[C@@]3(O)[C@H]1C5` [SPIROINDANYLOXYMORPHONE], in experiment [1], the ED50 stood at 1.7 nM mouse-1. Also, the Ki amounted to 588 nM in experiment [2] and 10.6 nM in experiment [3].
